SMILES strings stand for the structures. Where “and” joins values, the source holds several entries; their conditions need not be identical. Equal values may be shown once. Calls of active or inactive are those of the source.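 The calls were made as follows: active = compounds giving half or more protection of infected cells from virus-caused growth loss, again on retest; inactive = the rest.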

Among the data in PubChem BioAssay AID179 (DTP/NCI, 2004) are EC50, IC50 and outcome values, retold here.

This assay deals with CEM cells HIV-1 protection, formazan growth assay. As to the kind of experiment: NCI AIDS Antiviral Assay. As to conditions: for IC50: measured here: growth of uninfected CEM cells. The method, boiled down:
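Five concentrations of each compound were applied to infected and uninfected human CEM cells. Protection from HIV-1 was judged from growth measured with a soluble formazan assay.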

`CCOC(=O)[C@@]12C(C)=CC(=O)O[C@]1(C)C1C(=O)NC(=O)C12` (some centres undefined): the EC50 (as a rule, the concentration at which the effect is half-maximal) was > 851 µM and the 50% inhibitory concentration (IC50) (usually the midpoint of a concentration-inhibition curve) was > 851 µM.

On to `COc1cc(C(F)(F)F)nc(SC)n1`, for which the EC50 is > 200 µM and the half-inhibitory concentration (IC50) is > 200 µM.

Take `CN(C)CCCNc1c(C#N)[n+]([O-])c2cc(Cl)ccc2[n+]1[O-]`: the EC50 was > 2 µM and the IC50 came out at 1 µM.

With `FC(F)(Sc1ncccn1)c1nc2ccccc2o1`, the EC50 was 19.5 µM and the IC50 stood at 102 µM.

`CN(C)C=C1C(Cl)=C(C=O)CC(C=O)=C1Cl`: the result was inactive.

As to `O=C(O)CSc1cc(-c2ccc(Cl)cc2)s[s+]1`, the EC50 is > 200 µM and the IC50 was > 200 µM.

With `c1ccc(N2N=C(c3ccco3)CC2c2ccco2)cc1` (centres undefined), the EC50 was > 25.7 µM and the IC50 was > 25.7 µM.

For the compound `C=C(Br)CN1CCC2(c3ccccc3)C(O)C([Se]c3ccccc3)CCC12` (centres undefined), the EC50 was > 27.5 µM and the IC50 was > 27.5 µM.

Take `FC(F)(Oc1ccccc1)c1nc2ccccc2o1`: the EC50 is > 200 µM and the 50% inhibitory concentration (IC50) worked out at 64.6 µM.

In the case of `Nc1ccc(Cl)cc1C(=O)N1CCN(c2ccc([N+](=O)[O-])cn2)CC1`, the EC50 is > 132 µM and the 50% inhibitory concentration (IC50) worked out at 27.5 µM.

In the case of `CCN(Cc1ccccc1)c1ccc(/C=C/c2nccc3ccccc23)cc1`, the EC50 is > 14.5 µM and the IC50 is 14.1 µM.

With `CO/C(=N\Nc1ccc([N+](=O)[O-])cc1)P(=O)(OC(C)C)OC(C)C`, the EC50 is > 12.9 µM and the IC50 was > 12.9 µM.

As for `Cc1ccc(/C=N/Nc2ccc3ccccc3n2)s1`, the EC50 is > 200 µM and the IC50 was 21.4 µM.

Take `COc1cc(/C=C2\N=C(c3ccccc3)OC2=O)cc(OC)c1OC`: the EC50 is > 21.4 µM and the IC50 is > 21.4 µM.

With `CN(C)C=Nc1ccc2[nH]c3ccccc3c2c1`, the EC50 is > 200 µM and the IC50 is 107 µM.

As for `OCCN(CCO)c1cc(Cl)c(Cl)cc1Cl`, the EC50 was > 200 µM and the IC50 stood at 35.5 µM.

In the case of `NC(=O)NCCCC(NC(=O)OCCCCn1ccc(=O)[nH]c1=O)C(=O)O` (centres undefined), the EC50 is > 200 µM and the IC50 is > 200 µM.

Regarding `Cc1ccccc1N1C(=O)C2C=CC(n3[nH]c(=O)n(Cc4ccccc4)c3=O)CC2C1=O` (centres undefined), the EC50 was > 219 µM and the concentration for half-maximal inhibition (IC50) was > 219 µM.

Turning to `COc1cc(C2C3=C(COC3=O)Oc3cc4c(cc32)OCO4)cc(OC)c1O` (centres undefined), the EC50 was > 2 µM and the IC50 came out at 0.0562 µM.

Consider `CC(=O)Nc1c(Nc2ccc3c(=O)[nH]ccc3c2C)cc[nH]c1=O`, for which the EC50 was > 398 µM and the IC50 is 191 µM.

As to `CC(C)c1cccc(C(C)C)c1NC(=O)/C(CC(=O)CC(c1ccccc1)c1c(O)c2ccccc2oc1=O)=N/O` (centres undefined), the EC50 is > 89.1 µM and the IC50 is > 89.1 µM.

Regarding `C=C1CC(COc2ccc3ccc(=O)oc3c2)(c2ccccc2)OC1=O` (centres undefined), the EC50 is > 2 µM and the IC50 is 0.724 µM.

Take `Cc1nc2c(Br)cc(Br)cc2c(=O)n1-c1ccccc1NC1OCC(O)C(O)C1O` (centres undefined): the EC50 is > 200 µM.

`Nc1c(C(=O)O)sc2ncccc12`: the EC50 is 141 µM and the 50% inhibitory concentration (IC50) was found to be 219 µM.

Consider `Cc1ccc2c(C3Cc4ccccc4N3C(=O)/C=C\C(=O)O)c(C)[nH]c2c1` (centres undefined), for which the EC50 is > 363 µM and the IC50 came out at 60.3 µM.

Take `O=Cc1ccc(-c2ccc(-c3ccc(C=O)s3)o2)s1`: the outcome was inactive.

As for `CC(=O)Oc1cc(C)c2c(c1)CCC1C3CCC(OC(C)=O)C3(C)CC(O[N+](=O)[O-])C21O` (centres undefined), the EC50 was > 200 µM and the IC50 is > 200 µM.

Regarding `CC1CC(=O)C(CC(=O)O)[C@H]1C(C(=O)C(=O)Nc1cc(Cl)ccc1Cl)[N+](=O)[O-]` (some centres undefined), the outcome was inactive.

Consider `CCOC(=O)C1(CO)CSCCSC1`, for which the EC50 is > 1050 µM and the IC50 is > 1050 µM.

Consider `Cn1c2c(O)c(O)ccc2c(=O)c2c(O)cc3c(c21)C=CC(C)(C)O3`, for which the EC50 is > 200 µM and the IC50 was > 200 µM.

Take `CCOC(=O)CC(C(=O)OCC)S(=O)(=O)O` (centres undefined): the EC50 was > 200 µM and the IC50 was > 200 µM.

`COc1ccc(C[C@H](N)C(=O)N2C[C@H](CO)C[C@H](n3ccc(=O)[nH]c3=O)C2)cc1`: the EC50 is > 617 µM and the IC50 is > 617 µM.

Turning to `CCC[CH2][Sn]([CH2]CCC)([S]C1=NCCS1)[S]C1=NCCS1`, the EC50 is > 39.8 µM and the IC50 came out at 0.759 µM.

As for `CC(C)(C)C1COP(=S)(C(C)(C)C)OC1` (centres undefined), the EC50 is > 14.5 µM and the IC50 is > 14.5 µM.

Turning to `COc1cc(Oc2nc3c(N)cc(C(F)(F)F)cc3nc2-c2ccccc2)cc(OC)c1OC`, the EC50 was > 20 µM and the concentration for half-maximal inhibition (IC50) worked out at 14.1 µM.

On to `CCC[CH2][Sn]([CH2]CCC)([S]CCS(=O)(=O)O)[S]CCS(=O)(=O)O`, for which the EC50 is > 200 µM and the IC50 amounted to 115 µM.

As for `CCCCCCCCCCCCCCCCCC(=O)OC[C@H](COP(=O)(O)OCCNC(=O)CCC(=O)NCCC=C(c1cc(Cl)c(OC)c(C(=O)OC)c1)c1cc(Cl)c(OC)c(C(=O)OC)c1)OC(=O)CCCCCCCCCCCCCCCCC`, the EC50 is > 50.1 µM and the 50% inhibitory concentration (IC50) is > 50.1 µM.

As for `O=C(O)CN1CCNCCN(CP(=O)(O)O)CC1`, the EC50 was > 200 µM and the IC50 amounted to 10.5 µM.

For `CC(=O)[O-].[Mn+3].[O-]c1ccc(Cl)cc1C=NCCN=Cc1cc(Cl)ccc1[O-]`, the EC50 is > 240 µM and the IC50 came to 12 µM.

`CC(=O)Nc1sc(Br)cc1S(=O)(=O)c1ccc(Cl)cc1`: the EC50 was > 200 µM and the IC50 was found to be 31.6 µM.

Take `O=C1OCC2C(=O)OCC12` (centres undefined): the EC50 is > 200 µM and the IC50 was > 200 µM.

As for `C/C([O-])=C\[P+](c1ccccc1)(c1ccccc1)c1ccccc1`, the EC50 was > 200 µM and the IC50 was found to be 105 µM.

On to `CC1=CC(C)(c2c[nH]c3ccccc23)CC(C)(C)c2c1[nH]c1ccccc21` (centres undefined), for which the result was inactive.

With `CC1=CC(=O)c2cccc(NC3=NCCO3)c21`, the EC50 is > 200 µM and the concentration for half-maximal inhibition (IC50) was determined as 72.4 µM.

Regarding `CC(C)NS(=O)(=O)c1ncnc2nc[nH]c12`, the outcome was inactive.

For the compound `CCCC(=O)NC(Nc1ccc(S(=O)(=O)Nc2ccc(OC)nn2)cc1)(C(F)(F)F)C(F)(F)F`, the EC50 was > 200 µM and the IC50 was > 200 µM.

Take `Nc1nc2nsnc2nc1N`: the EC50 was > 240 µM and the IC50 is > 240 µM.

For the compound `CCCCCCCCCCCCCC1=NCC(C)(C)N1`, the EC50 was > 93.3 µM and the IC50 came out at 20.4 µM.

Take `O=C(OCCSSCCOC(=O)c1ccc([N+](=O)[O-])cc1)c1ccc([N+](=O)[O-])cc1`: the EC50 is > 200 µM and the concentration for half-maximal inhibition (IC50) came out at 12 µM.

On to `CC1C(C#N)(C#N)C(C#N)=C(N)C1(C)[N+](=O)[O-]` (centres undefined), for which the EC50 was > 200 µM and the IC50 is 27.5 µM.

In the case of `CCOC(=O)C(=O)Nc1ccccc1C`, the EC50 is > 34.7 µM and the concentration for half-maximal inhibition (IC50) was > 34.7 µM.

With `FC(F)(Sc1ncc[nH]1)c1nc2ccccc2o1`, the EC50 is 43.7 µM and the IC50 was > 200 µM.

In the case of `COc1cc(CNc2nc3c(N)cc(C(F)(F)F)cc3nc2-c2ccccc2)cc(OC)c1OC`, the EC50 was > 20.4 µM and the half-maximal inhibitory concentration (IC50) was > 20.4 µM.

For `COc1c(O)c2c(=O)cc(OC)c3c4c(OC)cc(=O)c5c(O)c(OC)c6c(c(c1CC(C)(O)C6C(C)=O)c23)c54` (centres undefined), the EC50 is > 13.2 µM and the IC50 came to 1.58 µM.

On to `O=C1CCC(c2ccc(Cl)cc2)=NN1c1nsc2ccccc12`, for which the EC50 is > 39.8 µM and the concentration for half-maximal inhibition (IC50) is > 39.8 µM.

With `CC(=O)OCCNc1n[nH]c(=O)c2cnccc12`, the EC50 was > 1000 µM and the IC50 was > 1000 µM.

As for `COc1ccc2cc3[n+](cc2c1OC)CCc1cc2c(cc1-3)OCO2`, the 50% effective concentration (EC50) is > 339 µM; the half-inhibitory concentration (IC50) is 6.76 µM and 3.31 µM.

Regarding `COc1cccc(NC(=O)CC(=O)NN2C(=O)/C(=C/c3ccc(N(CCC#N)CCC#N)cc3)N=C2c2cc([N+](=O)[O-])ccc2Cl)c1`, the EC50 was > 11 µM and the half-inhibitory concentration (IC50) is 7.24 µM.

Regarding `CN(C)CCNC(=O)c1cccc(N(C)C(=O)c2ccccc2)c1[N+](=O)[O-]`, the EC50 is > 200 µM and the half-maximal inhibitory concentration (IC50) is > 200 µM.

`O=[N+]([O-])c1c(Cl)cccc1-c1c[nH]c(Cl)c1Cl`: the EC50 is > 123 µM and the half-inhibitory concentration (IC50) came out at 20.4 µM.

On to `O=C(NS(=O)(=O)Nc1ccccc1)OCC1CCCCC1`, for which the EC50 was > 200 µM and the half-maximal inhibitory concentration (IC50) was 135 µM.

As for `O=[As](O)(O)c1ccc(Nc2nc(Cl)nc(Cl)n2)cc1`, the 50% effective concentration (EC50) was > 200 µM and the half-maximal inhibitory concentration (IC50) was > 200 µM.

Turning to `O=c1c2ccccc2nc(-c2cccc(Cl)c2)n1NCC1(O)OCC(O)C(O)C1O` (centres undefined), the result was inactive.

`COC(=O)[C@H](Cc1c[nH]c2ccccc12)NP(=O)(OC)OCC1OC(n2cc(C)c(=O)[nH]c2=O)CC1N=[N+]=[N-]` (some centres undefined): the concentration giving a half-maximal response (EC50) was 69.2 µM and the IC50 is > 200 µM.

On to `Cc1cc(-c2cccs2)oc(=O)c1NC(=O)c1ccccc1`, for which the EC50 was > 200 µM and the IC50 is 26.9 µM.

Consider `COc1nc2ccc(CNc3ccc(C(=O)O)cc3)cc2nc1OC`, for which the EC50 is > 200 µM and the 50% inhibitory concentration (IC50) was > 200 µM.

With `COC1OC(CS)C(N)C1OS(C)(=O)=O` (centres undefined), the EC50 was > 200 µM and the 50% inhibitory concentration (IC50) came to 155 µM.

For `CCOc1ccc(NCc2cc(OC)c(OC)c(OC)c2)cc1`, the EC50 was > 158 µM; the half-maximal inhibitory concentration (IC50) was 0.324 µM and 0.339 µM.

With `CC(C)(C)NC1=NC(C(F)(F)F)(C(F)(F)F)NC(=O)N1`, the EC50 is > 200 µM and the IC50 stood at 70.8 µM.

With `O=C1OC(=O)C2=C1C1c3ccccc3C2c2ccccc21`, the EC50 was > 95.5 µM and the IC50 was 22.4 µM.

With `CCOC(=O)c1cc(-c2cc(OC)c(OC)c([N+](=O)[O-])c2)c([N+](=O)[O-])n1C`, the EC50 was > 200 µM and the concentration for half-maximal inhibition (IC50) was 10.2 µM.

Take `Nc1ccc2c3c(cccc13)C(=O)N(CCCBr)C2=O`: the EC50 was > 200 µM and the IC50 was determined as 7.08 µM.

As for `COC(=O)Cc1ccc2c(c1)Sc1ccc(CC(=O)OC)cc1N2C`, the EC50 is > 200 µM and the half-inhibitory concentration (IC50) was determined as 4.47 µM.
